{
  "source": "patent US20080031982A1",
  "about": "(Metaproteomics, LLC, priority 2006, published 2008)",
  "key": {"[1]": {"biological_target": "CDK9/cyclin T1 (Homo sapiens, UniProt P50750)", "sequence (P50750 whole entry)": "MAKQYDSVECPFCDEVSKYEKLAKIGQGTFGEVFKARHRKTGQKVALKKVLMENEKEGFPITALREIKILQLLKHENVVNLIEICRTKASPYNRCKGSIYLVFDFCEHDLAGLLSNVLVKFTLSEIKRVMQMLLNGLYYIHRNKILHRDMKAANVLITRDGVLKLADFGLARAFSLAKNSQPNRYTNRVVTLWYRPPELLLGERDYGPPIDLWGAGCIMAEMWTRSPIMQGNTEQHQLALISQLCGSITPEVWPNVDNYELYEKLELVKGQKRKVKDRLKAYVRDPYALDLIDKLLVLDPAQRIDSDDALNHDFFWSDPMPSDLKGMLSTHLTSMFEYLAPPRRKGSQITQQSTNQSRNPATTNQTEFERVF", "sequence (O60563 whole entry partner)": "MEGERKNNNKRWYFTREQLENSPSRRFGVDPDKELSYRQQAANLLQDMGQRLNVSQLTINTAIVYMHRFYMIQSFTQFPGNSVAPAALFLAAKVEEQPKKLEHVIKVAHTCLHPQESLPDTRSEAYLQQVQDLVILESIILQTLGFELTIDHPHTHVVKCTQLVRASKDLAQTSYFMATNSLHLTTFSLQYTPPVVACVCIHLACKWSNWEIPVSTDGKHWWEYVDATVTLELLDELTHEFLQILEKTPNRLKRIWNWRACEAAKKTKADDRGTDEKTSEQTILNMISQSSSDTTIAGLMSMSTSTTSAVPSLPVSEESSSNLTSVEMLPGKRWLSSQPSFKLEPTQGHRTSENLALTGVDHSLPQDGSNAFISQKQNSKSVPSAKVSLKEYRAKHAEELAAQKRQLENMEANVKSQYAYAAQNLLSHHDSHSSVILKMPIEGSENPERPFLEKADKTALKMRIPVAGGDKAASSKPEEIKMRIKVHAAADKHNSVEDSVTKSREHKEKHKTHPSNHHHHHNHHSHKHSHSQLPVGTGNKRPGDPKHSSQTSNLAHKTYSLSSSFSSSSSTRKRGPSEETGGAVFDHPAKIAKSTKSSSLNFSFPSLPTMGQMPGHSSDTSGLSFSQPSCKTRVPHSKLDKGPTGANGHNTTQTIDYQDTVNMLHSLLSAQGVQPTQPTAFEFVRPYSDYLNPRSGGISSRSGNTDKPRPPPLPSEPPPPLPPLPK", "experiment": "KinaseProfiler Assay"}, "[2]": {"biological_target": "CK1δ (Homo sapiens, UniProt P48730)", "sequence (P48730 whole entry)": "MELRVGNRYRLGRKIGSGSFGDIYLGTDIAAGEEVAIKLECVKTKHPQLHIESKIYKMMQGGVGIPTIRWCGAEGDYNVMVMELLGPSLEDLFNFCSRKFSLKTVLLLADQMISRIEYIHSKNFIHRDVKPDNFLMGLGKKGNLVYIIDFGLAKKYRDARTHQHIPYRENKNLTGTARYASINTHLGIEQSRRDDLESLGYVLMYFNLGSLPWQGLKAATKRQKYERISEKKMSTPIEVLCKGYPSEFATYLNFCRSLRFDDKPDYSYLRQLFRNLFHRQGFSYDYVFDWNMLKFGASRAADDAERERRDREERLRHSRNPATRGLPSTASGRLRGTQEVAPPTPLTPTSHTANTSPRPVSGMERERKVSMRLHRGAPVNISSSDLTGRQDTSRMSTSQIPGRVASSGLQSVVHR", "experiment": "KinaseProfiler Assay"}, "[3]": {"biological_target": "GSK3β (Homo sapiens, UniProt P49841)", "experiment": "KinaseProfiler Assay"}, "[4]": {"biological_target": "IR (Homo sapiens, UniProt P06213)", "sequence (P06213 28-1382)": "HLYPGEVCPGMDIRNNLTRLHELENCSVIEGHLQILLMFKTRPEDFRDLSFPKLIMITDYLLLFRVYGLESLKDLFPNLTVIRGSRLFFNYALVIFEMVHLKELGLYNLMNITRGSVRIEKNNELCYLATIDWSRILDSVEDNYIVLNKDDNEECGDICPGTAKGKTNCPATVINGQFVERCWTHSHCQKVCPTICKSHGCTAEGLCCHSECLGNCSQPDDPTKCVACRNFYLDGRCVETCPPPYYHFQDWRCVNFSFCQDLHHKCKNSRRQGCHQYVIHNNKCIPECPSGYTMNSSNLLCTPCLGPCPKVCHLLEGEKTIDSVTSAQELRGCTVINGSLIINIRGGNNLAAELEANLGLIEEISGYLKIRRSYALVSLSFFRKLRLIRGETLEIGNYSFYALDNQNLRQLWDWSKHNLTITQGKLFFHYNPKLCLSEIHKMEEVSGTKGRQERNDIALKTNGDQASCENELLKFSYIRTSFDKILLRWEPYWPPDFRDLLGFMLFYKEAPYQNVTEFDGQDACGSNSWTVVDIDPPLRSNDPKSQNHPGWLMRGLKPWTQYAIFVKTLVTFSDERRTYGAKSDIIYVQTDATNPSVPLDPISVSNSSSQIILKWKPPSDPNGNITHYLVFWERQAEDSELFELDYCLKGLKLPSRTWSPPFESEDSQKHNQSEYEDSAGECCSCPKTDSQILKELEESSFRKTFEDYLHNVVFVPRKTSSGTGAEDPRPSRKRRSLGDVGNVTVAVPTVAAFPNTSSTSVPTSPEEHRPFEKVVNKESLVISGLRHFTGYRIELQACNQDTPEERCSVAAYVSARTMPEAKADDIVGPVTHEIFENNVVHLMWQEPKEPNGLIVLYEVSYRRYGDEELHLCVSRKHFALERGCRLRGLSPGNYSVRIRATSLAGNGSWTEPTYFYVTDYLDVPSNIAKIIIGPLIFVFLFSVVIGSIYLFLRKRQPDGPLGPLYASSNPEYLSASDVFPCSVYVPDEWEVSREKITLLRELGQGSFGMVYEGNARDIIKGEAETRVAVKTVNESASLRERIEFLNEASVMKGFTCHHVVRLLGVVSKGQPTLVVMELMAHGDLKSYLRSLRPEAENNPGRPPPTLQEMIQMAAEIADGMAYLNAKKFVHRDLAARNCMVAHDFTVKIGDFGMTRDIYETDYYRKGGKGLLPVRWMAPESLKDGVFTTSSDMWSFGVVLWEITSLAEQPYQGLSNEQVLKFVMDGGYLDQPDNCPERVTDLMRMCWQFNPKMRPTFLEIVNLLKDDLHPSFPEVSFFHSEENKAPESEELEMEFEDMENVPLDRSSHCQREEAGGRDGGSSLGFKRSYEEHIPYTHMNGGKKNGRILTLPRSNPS", "experiment": "KinaseProfiler Assay"}, "[5]": {"biological_target": "IRAK1 (Homo sapiens, UniProt P51617)", "experiment": "KinaseProfiler Assay"}, "[6]": {"biological_target": "Fes (Homo sapiens, UniProt P07332)", "sequence (P07332 whole entry)": "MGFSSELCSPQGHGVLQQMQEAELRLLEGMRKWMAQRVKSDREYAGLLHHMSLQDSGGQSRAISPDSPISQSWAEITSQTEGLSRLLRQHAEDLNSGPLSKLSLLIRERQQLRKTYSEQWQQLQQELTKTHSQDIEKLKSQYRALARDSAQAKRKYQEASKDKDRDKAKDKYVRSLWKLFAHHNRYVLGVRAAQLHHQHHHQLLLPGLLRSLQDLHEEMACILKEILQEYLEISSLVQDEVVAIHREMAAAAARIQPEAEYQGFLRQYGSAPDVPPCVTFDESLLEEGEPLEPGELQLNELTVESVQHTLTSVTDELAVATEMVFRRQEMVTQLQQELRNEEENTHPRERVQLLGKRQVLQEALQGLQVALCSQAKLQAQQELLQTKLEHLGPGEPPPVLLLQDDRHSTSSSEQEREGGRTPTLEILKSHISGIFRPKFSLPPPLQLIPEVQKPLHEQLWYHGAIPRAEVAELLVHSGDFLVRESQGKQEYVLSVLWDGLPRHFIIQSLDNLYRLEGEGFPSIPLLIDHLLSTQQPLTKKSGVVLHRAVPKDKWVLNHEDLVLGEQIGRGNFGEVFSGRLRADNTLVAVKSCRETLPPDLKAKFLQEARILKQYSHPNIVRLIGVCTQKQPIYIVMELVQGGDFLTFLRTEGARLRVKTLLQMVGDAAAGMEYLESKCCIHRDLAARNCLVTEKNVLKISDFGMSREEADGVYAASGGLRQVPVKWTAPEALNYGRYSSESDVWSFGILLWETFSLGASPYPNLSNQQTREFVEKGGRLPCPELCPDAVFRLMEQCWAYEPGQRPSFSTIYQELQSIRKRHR", "experiment": "KinaseProfiler Assay"}, "[7]": {"biological_target": "CK1γ1 (Homo sapiens, UniProt Q9HCP0)", "experiment": "KinaseProfiler Assay"}, "[8]": {"biological_target": "CDK6/cyclinD3 (Homo sapiens, UniProt Q00534)", "experiment": "KinaseProfiler Assay"}, "[9]": {"biological_target": "PKCα (Homo sapiens, UniProt P17252)", "experiment": "KinaseProfiler Assay"}, "[10]": {"biological_target": "Ron (Homo sapiens, UniProt Q04912)", "experiment": "KinaseProfiler Assay"}, "[11]": {"system": "CK1(y)", "experiment": "KinaseProfiler Assay"}, "[12]": {"biological_target": "T1, CHK1 (Homo sapiens, UniProt O14757)", "T1 sequence (O14757 1-476)": "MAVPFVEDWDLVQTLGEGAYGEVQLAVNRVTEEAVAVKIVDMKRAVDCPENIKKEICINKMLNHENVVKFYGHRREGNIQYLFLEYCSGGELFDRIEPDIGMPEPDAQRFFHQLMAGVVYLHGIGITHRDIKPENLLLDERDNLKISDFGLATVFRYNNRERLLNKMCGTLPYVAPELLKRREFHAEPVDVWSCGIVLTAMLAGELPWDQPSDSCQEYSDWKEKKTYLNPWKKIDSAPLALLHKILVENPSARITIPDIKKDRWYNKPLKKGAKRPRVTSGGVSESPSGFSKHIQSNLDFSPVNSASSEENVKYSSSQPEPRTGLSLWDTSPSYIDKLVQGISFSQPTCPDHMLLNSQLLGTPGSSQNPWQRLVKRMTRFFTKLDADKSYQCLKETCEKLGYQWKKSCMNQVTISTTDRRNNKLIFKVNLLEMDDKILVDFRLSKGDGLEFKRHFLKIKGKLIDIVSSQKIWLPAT", "experiment": "KinaseProfiler Assay"}, "[13]": {"biological_target": "MAPK1 (Homo sapiens, UniProt P27361)", "experiment": "KinaseProfiler Assay"}, "[14]": {"biological_target": "PAK5 (Homo sapiens, UniProt Q9P286)", "experiment": "KinaseProfiler Assay"}, "[15]": {"biological_target": "CK1γ2 (Homo sapiens, UniProt P78368)", "experiment": "KinaseProfiler Assay"}, "[16]": {"biological_target": "HIPK2 (Homo sapiens, UniProt Q9H2X6)", "experiment": "KinaseProfiler Assay"}, "[17]": {"biological_target": "cSRC (Homo sapiens, UniProt P12931)", "sequence (P12931 whole entry)": "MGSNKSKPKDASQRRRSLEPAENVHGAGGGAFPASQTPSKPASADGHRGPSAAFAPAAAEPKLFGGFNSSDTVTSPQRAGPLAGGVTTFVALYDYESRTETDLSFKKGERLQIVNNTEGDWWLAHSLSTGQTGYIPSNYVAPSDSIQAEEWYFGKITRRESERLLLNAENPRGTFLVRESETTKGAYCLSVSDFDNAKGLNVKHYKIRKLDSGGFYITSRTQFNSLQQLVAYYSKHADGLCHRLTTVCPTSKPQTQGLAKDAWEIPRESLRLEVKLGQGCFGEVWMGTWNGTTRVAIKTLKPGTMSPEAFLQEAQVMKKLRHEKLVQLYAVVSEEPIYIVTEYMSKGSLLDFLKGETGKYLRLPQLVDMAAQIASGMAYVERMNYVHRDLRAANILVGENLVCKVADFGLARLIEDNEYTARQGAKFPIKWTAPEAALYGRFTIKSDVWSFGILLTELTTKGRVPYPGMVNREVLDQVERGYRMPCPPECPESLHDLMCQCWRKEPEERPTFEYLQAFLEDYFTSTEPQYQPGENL", "experiment": "KinaseProfiler Assay"}, "[18]": {"system": "3T3-L1 adipocytes", "experiment": "Lipogenesis in 3T3-L1 adipocytes (Oil Red O / BODIPY)", "type": "cell-based, murine", "conditions": "relative to solvent and positive controls", "method": "Prior to experiments, cells were cultured in DMEM containing 10% FBS-HI added 50 units penicillin/ml and 50 μg streptomycin/ml, and maintained in log phase prior to experimental setup. Cells were grown in a 5% CO2 humidified incubator at 37° C. Components of the pre-confluent medium included (1) 10% FBS/DMEM containing 4.5 g glucose/L; (2) 50 U/ml penicillin; and (3) 50 μg/ml streptomycin. Growth medium was made by adding 50 ml of heat inactivated FBS and 5 ml of penicillin/streptomycin to 500 ml DMEM. This medium was stored at 4° C. Before use, the medium was warmed to 37° C. in a water bath.\n3T3-T1 cells were seeded at an initial density of 6×10^4 cells/cm^2 in 24-well plates. For two days, the cells were allowed grow to reach confluence. Following confluence, the cells were forced to differentiate into adipocytes by the addition of differentiation medium; this medium consisted of (1) 10% FBS/DMEM (high glucose); (2) 0.5 mM methylisobutylxanthine; (3) 0.5 μM dexamethasone and (4) 10 μg/ml insulin (MDI medium). After three days, the medium was changed to post-differentiation medium consisting of 10 μg/ml insulin in 10% FBS/DMEM.\nWhenever fresh media were added, fresh test material was also added.\nOil Red 0 Staining—Triglyceride content of D6/D7-differentiated 3T3-L1 cells was estimated with Oil Red 0 according to the method of Kasturi and Joshi [Kasturi, R. and Joshi, V. C. […] Monolayer cells were washed with PBS (phosphate buffered saline, Mediatech) and fixed with 10% formaldehyde for ten minutes. Fixed cells were stained with an Oil Red 0 working solution of three parts 0.6% Oil Red O/isopropanol stock solution and two parts water for one hour and the excess stain was washed once with water. The resulting stained oil droplets were extracted from the cells with isopropanol and quantified by spectrophotometric analysis at 540 nm (MEL312e BIO-KINETICS READER, Bio-Tek Instruments, Winooski, Vt.).\nBriefly, media were removed and cells were washed once with non-sterile PBS. A stock 1000× BODIPY/DMSO solution was made by dissolving 1 mg BODIPY in 1 ml DMSO (1,000 μg BODIPY/ml). […] One-hundred μl of this working solution (1 μg BODIPY) was added to each well of a 96-well microtiter plate. After 15 min on an orbital shaker (DS-500, VWR Scientific Products, South Plainfield, N.J.) at ambient temperature, the cells were washed with 100 μl PBS followed by the addition of 100 μl PBS for reading for spectrofluorometric determination of BODIPY incorporation into the cells.\nNonpolar lipid incorporation was represented relative to the nonpolar lipid accumulation of fully differentiated cells in the solvent controls."}, "[19]": {"biological_target": "GSK3α (Homo sapiens, UniProt P49840)", "sequence (P49840 whole entry)": "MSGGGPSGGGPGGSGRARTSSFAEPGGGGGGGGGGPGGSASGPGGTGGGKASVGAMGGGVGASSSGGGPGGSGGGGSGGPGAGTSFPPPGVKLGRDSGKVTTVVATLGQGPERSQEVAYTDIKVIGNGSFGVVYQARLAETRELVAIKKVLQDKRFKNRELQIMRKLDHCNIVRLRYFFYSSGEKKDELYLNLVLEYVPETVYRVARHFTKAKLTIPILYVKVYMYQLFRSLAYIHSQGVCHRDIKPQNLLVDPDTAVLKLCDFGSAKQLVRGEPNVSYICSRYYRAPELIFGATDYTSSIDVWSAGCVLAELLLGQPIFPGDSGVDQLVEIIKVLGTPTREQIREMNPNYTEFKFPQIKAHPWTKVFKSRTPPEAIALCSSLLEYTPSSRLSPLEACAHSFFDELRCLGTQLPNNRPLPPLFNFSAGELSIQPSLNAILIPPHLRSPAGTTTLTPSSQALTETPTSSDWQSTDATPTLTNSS", "experiment": "KinaseProfiler Assay"}},
  "data": [
    {"smiles": "COc1cc(O)c(CC=C(C)C)c(O)c1C(=O)/C=C/c1ccc(O)cc1", "note": "[Xanthohumol, xanthohumol]", "values": [
      {"measurement": "Kinase activity, % of Control", "setting": "[1]; 1 ug/ml", "value": "110 % of Control"},
      {"measurement": "Kinase activity, % of Control", "setting": "[1]; 5 ug/ml", "value": "107 % of Control"},
      {"measurement": "Kinase activity, % of Control", "setting": "[1]; 25 ug/ml", "value": "45 % of Control"},
      {"measurement": "Kinase activity, % of Control", "setting": "[1]; 50 ug/ml", "value": "31 % of Control"},
      {"measurement": "Kinase activity, % of Control", "setting": "[2]; 5 ug/ml", "value": "32 % of Control"},
      {"measurement": "Kinase activity, % of Control", "setting": "[2]; 25 ug/ml", "value": "16 % of Control"},
      {"measurement": "Kinase activity, % of Control", "setting": "[2]; 50 ug/ml", "value": "12 % of Control"},
      {"measurement": "Kinase activity, % of Control", "setting": "[3]; 1 ug/ml", "value": "120 % of Control"},
      {"measurement": "Kinase activity, % of Control", "setting": "[3]; 5 ug/ml", "value": "99 % of Control"},
      {"measurement": "Kinase activity, % of Control", "setting": "[3]; 25 ug/ml", "value": "25 % of Control"},
      {"measurement": "Kinase activity, % of Control", "setting": "[3]; 50 ug/ml", "value": "3 % of Control"},
      {"measurement": "Kinase activity, % of Control", "setting": "[4]; 1 ug/ml", "value": "120 % of Control"},
      {"measurement": "Kinase activity, % of Control", "setting": "[4]; 5 ug/ml", "value": "108 % of Control"},
      {"measurement": "Kinase activity, % of Control", "setting": "[4]; 50 ug/ml", "value": "103 % of Control"},
      {"measurement": "Kinase activity, % of Control", "setting": "[5]; 1 ug/ml", "value": "129 % of Control"},
      {"measurement": "Kinase activity, % of Control", "setting": "[5]; 5 ug/ml", "value": "104 % of Control"},
      {"measurement": "Kinase activity, % of Control", "setting": "[5]; 50 ug/ml", "value": "36 % of Control"},
      {"measurement": "Kinase activity, % of Control", "setting": "[6]; 1 ug/ml", "value": "131 % of Control"},
      {"measurement": "Kinase activity, % of Control", "setting": "[6]; 5 ug/ml", "value": "106 % of Control"},
      {"measurement": "Kinase activity, % of Control", "setting": "[6]; 25 ug/ml", "value": "102 % of Control"},
      {"measurement": "Kinase activity, % of Control", "setting": "[6]; 50 ug/ml", "value": "26 % of Control"},
      {"measurement": "Kinase activity, % of Control", "setting": "[7]; 1 ug/ml", "value": "101 % of Control"},
      {"measurement": "Kinase activity, % of Control", "setting": "[7]; 5 ug/ml", "value": "79 % of Control"},
      {"measurement": "Kinase activity, % of Control", "setting": "[7]; 25 ug/ml", "value": "50 % of Control"},
      {"measurement": "Kinase activity, % of Control", "setting": "[7]; 50 ug/ml", "value": "26 % of Control"},
      {"measurement": "Kinase activity, % of Control", "setting": "[8]; 1 ug/ml", "value": "110 % of Control"},
      {"measurement": "Kinase activity, % of Control", "setting": "[8]; 5 ug/ml", "value": "79 % of Control"},
      {"measurement": "Kinase activity, % of Control", "setting": "[8]; 25 ug/ml", "value": "23 % of Control"},
      {"measurement": "Kinase activity, % of Control", "setting": "[8]; 50 ug/ml", "value": "7 % of Control"},
      {"measurement": "Kinase activity, % of Control", "setting": "[9]; 1 ug/ml", "value": "100 % of Control"},
      {"measurement": "Kinase activity, % of Control", "setting": "[9]; 5 ug/ml", "value": "100 % of Control"},
      {"measurement": "Kinase activity, % of Control", "setting": "[9]; 50 ug/ml", "value": "83 % of Control"},
      {"measurement": "Kinase activity, % of Control", "setting": "[10]; 1 ug/ml", "value": "135 % of Control"},
      {"measurement": "Kinase activity, % of Control", "setting": "[10]; 5 ug/ml", "value": "127 % of Control"},
      {"measurement": "Kinase activity, % of Control", "setting": "[10]; 25 ug/ml", "value": "60 % of Control"},
      {"measurement": "Kinase activity, % of Control", "setting": "[10]; 50 ug/ml", "value": "69 % of Control"},
      {"measurement": "Kinase activity, % of Control", "setting": "[11]; 1 ug/ml", "value": "91 % of Control"},
      {"measurement": "Kinase activity, % of Control", "setting": "[11]; 5 ug/ml", "value": "63 % of Control"},
      {"measurement": "Kinase activity, % of Control", "setting": "[11]; 25 ug/ml", "value": "37 % of Control"},
      {"measurement": "Kinase activity, % of Control", "setting": "[11]; 50 ug/ml", "value": "9 % of Control"},
      {"measurement": "Kinase activity, % of Control", "setting": "[12]; 1 ug/ml", "value": "121 % of Control"},
      {"measurement": "Kinase activity, % of Control", "setting": "[12]; 5 ug/ml", "value": "126 % of Control"},
      {"measurement": "Kinase activity, % of Control", "setting": "[12]; 25 ug/ml", "value": "142 % of Control"},
      {"measurement": "Kinase activity, % of Control", "setting": "[12]; 50 ug/ml", "value": "149 % of Control"},
      {"measurement": "Kinase activity, % of Control", "setting": "[13]; 5 ug/ml", "value": "64 % of Control"},
      {"measurement": "Kinase activity, % of Control", "setting": "[13]; 25 ug/ml", "value": "19 % of Control"},
      {"measurement": "Kinase activity, % of Control", "setting": "[13]; 50 ug/ml", "value": "17 % of Control"},
      {"measurement": "Kinase activity, % of Control", "setting": "[14]; 1 ug/ml", "value": "106 % of Control"},
      {"measurement": "Kinase activity, % of Control", "setting": "[14]; 5 ug/ml", "value": "99 % of Control"},
      {"measurement": "Kinase activity, % of Control", "setting": "[14]; 25 ug/ml", "value": "42 % of Control"},
      {"measurement": "Kinase activity, % of Control", "setting": "[14]; 50 ug/ml", "value": "5 % of Control"},
      {"measurement": "Kinase activity, % of Control", "setting": "[15]; 1 ug/ml", "value": "92 % of Control"},
      {"measurement": "Kinase activity, % of Control", "setting": "[15]; 5 ug/ml", "value": "48 % of Control"},
      {"measurement": "Kinase activity, % of Control", "setting": "[15]; 25 ug/ml", "value": "30 % of Control"},
      {"measurement": "Kinase activity, % of Control", "setting": "[15]; 50 ug/ml", "value": "12 % of Control"},
      {"measurement": "Kinase activity, % of Control", "setting": "[16]; 1 ug/ml", "value": "110 % of Control"},
      {"measurement": "Kinase activity, % of Control", "setting": "[16]; 5 ug/ml", "value": "98 % of Control"},
      {"measurement": "Kinase activity, % of Control", "setting": "[17]; 1 ug/ml", "value": "92 % of Control"},
      {"measurement": "Kinase activity, % of Control", "setting": "[17]; 5 ug/ml", "value": "50 % of Control"},
      {"measurement": "Kinase activity, % of Control", "setting": "[17]; 25 ug/ml", "value": "27 % of Control"},
      {"measurement": "Kinase activity, % of Control", "setting": "[17]; 50 ug/ml", "value": "21 % of Control"},
      {"measurement": "adipogenic / lipogenic response", "setting": "[18]", "value": "comparable to indomethacin and troglitazone"},
      {"measurement": "Kinase activity, % of Control", "setting": "[19]; 1 ug/ml", "value": "102 % of Control"},
      {"measurement": "Kinase activity, % of Control", "setting": "[19]; 25 ug/ml", "value": "11 % of Control"},
      {"measurement": "Kinase activity, % of Control", "setting": "[19]; 50 ug/ml", "value": "−4 % of Control"}
    ]}
  ]
}
